From patent US6664397B1, “Use of (+)mefloquine for the treatment of malaria” (Vernalis Research Limited, priority 1997, dated 2003)
pKi: −log10 of the molar value.

Key:
[1] = target: T1, human recombinant (HEK-293) adenosine A3 receptors (Homo sapiens, UniProt P0DMS8); conditions: comparative literature data for reference ligands; cited from earlier work
T1 construct: expressed in transfected cells; host or cells: HEK-293
T1 sequence (P0DMS8 1-318): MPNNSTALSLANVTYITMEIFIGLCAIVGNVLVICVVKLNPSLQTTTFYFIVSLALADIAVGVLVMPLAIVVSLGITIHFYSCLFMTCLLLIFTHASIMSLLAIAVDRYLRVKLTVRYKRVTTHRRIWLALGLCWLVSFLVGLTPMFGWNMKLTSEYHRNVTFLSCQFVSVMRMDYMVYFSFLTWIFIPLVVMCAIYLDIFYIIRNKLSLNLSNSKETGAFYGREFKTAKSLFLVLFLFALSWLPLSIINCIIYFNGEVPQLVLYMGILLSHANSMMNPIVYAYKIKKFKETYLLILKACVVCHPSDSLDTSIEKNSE

[2] = target: bovine striatal adenosine receptors (non-selective); conditions: displacement of [3H]-NECA
travellers = conditions: 3851 travellers surveyed, prophylactic use; cited from earlier work
[3] = target: T2, adenosine A2A receptors endogenously expressed in PC-12 cells (Rattus norvegicus, UniProt P30543); assay: Agonist-induced increase in extracellular acidification rate (ECAR) in PC-12 cells, cytosensor microphysiometer; format: cell-based
T2 construct: PC12 cells endogenously express adenosine A2A receptors; host or cells: PC-12 cells
Experimental: PC-12 cells (purchased from ECACC) were maintained in RPMI 1640 media (Sigma) supplemented with 2 mM L-glutamine and 10% FCS in a controlled environment of 5% CO2, 95% humidity at 37° C.
On the day of the assay the cells were gently harvested and centrifuged at 700 RPM for 10 min. The supernatant was discarded and the pellet re-suspended to a final density of approx. 1×10^6 cells/ml in modified RPMI 1640 media. 600 μl of this suspension was mixed with 200 μl of molten agarose cell entrapment media (Molecular Devices) pre-incubated to 37° C. The cell suspension was returned to the incubator for a further 10 minutes for equilibration. 10 μl of this cell agarose suspension was spotted onto the middle of the capsule insert well and allowed to set before being placed in the sensor chambers in the cytosensor® microphysiometer. […]
Agonist concentration curves were constructed by exposing the cells to increasing concentrations of agonist for a total exposure time of approximately 1 min 53 sec. Agonist concentration curves in the presence of antagonists were performed following pre-incubation of the cells to the antagonists for at least 20 min prior to agonist exposure (in the presence of the fixed antagonist concentration) Baseline acidification rates were normalised to 100%, and all responses were calculated as a % increase over normalised baseline. […]

mice [4] = assay: Irwin screen of overt physiological and behavioral effects in mice; conditions: for reduced activity, unkempt appearance, hunched body posture (late effects): high dose, daily p.o. dosing, about five days
mice [5] = assay: Potentiation of pentylenetetrazole-induced seizures (proconvulsant effect) in mice; conditions: 300 mg/kg p.o., 24 hrs after a single dose
Plasmodium falciparum = conditions: Karle et al. 1993; cited from earlier work

T2 sequence (P30543 whole entry): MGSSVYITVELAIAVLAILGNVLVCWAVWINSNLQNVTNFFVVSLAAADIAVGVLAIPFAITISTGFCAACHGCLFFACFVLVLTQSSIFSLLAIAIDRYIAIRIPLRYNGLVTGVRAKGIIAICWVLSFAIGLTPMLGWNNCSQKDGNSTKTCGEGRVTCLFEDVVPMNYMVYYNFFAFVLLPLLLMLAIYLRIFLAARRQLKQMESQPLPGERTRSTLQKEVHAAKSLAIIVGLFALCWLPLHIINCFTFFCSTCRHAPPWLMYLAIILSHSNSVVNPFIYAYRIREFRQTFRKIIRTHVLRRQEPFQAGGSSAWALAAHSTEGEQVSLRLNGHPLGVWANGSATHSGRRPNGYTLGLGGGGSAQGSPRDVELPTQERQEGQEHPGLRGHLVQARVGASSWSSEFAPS

Structure (SMILES): OC[C@H]1O[C@@H](n2cnc3c(NC4CCCCC4)ncnc32)[C@H](O)[C@@H]1O [CHA]
- pKi [1]: 5.11

Structure (SMILES): Nc1nc(NCCc2ccc(O)cc2)nc2nc(-c3ccco3)nn12 [ZM241385]
- pKi [1]: 3.82

Structure (SMILES): CNC(=O)[C@H]1O[C@@H](n2cnc3c(N)ncnc32)[C@H](O)[C@@H]1O [MECA, 5′-N-methylcarboxamidoadenosine, reference compound]
- pKi [2]: 7.24

Structure (SMILES): O[C@H](c1cc(C(F)(F)F)nc2c(C(F)(F)F)cccc12)[C@@H]1CCCCN1 (racemic) [mefloquine, (R*,S*)-(±)-α-2-Piperidinyl-2,8-bis(trifluoromethyl)-4-quinolinemethanol]
- adverse neuropsychiatric events compared with proguanil plus chloroquine (travellers): significant excess of adverse neuropsychiatric events

Structure (SMILES): O[C@@H](c1cc(C(F)(F)F)nc2c(C(F)(F)F)cccc12)[C@H]1CCCCN1 [(−)-enantiomer, (−)-(11S,2′R)-α-2-piperidinyl-2,8-bis(trifluoromethyl)-4-quinolinemethanol]
- effect on the CGS 21680-induced increase in ECAR ([3]; agonist CGS 21680, FIG. 6): specific to adenosine A2A receptors
- effect on the NECA-induced increase in ECAR ([3]; agonist NECA, FIG. 5): binds to adenosine receptors as an antagonist
- pKi [2]: 7.08
- behavioral effects twenty-four hours after the first dose (mice [4]; 300 mg/kg p.o., 24 hours): difficult to handle and displayed aggression toward cage-mates
- qualitative behavioral difference between the enantiomers (mice [4]; daily dosing 30, 100, 300 mg/kg p.o.): appearing more potent in eliciting spontaneous seizures, irritability and aggressiveness
- reduced activity, unkempt appearance, hunched body posture (late effects) (mice [4]): showed reduced activity, unkempt appearance and assumed a hunched body posture
- latency to onset of clonic seizures induced by infusion of pentylenetetrazole (PTZ) (mice [5]): significantly reduced the latency to onset of clonic seizures

Structure (SMILES): O[C@H](c1cc(C(F)(F)F)nc2c(C(F)(F)F)cccc12)[C@@H]1CCCCN1 [(+)-enantiomer, (+)-(11R,2′S)-α-2-piperidinyl-2,8-bis(trifluoromethyl)-4-quinolinemethanol]
- factor by which the (+)-enantiomer was more potent than the (−)-enantiomer (Plasmodium falciparum): 1.69-1.81
- pKi [2]: 4.42
- reduced activity, unkempt appearance, hunched body posture (late effects) (mice [4]): these effects only became apparent after 5-6 days, and did not include seizures
